{"source": "patent US8188096B2", "about": "“Protein kinase targeted therapeutics” (Northwestern University, priority 2006, dated 2012)", "key": {"CK1δ": {"molecular_target": "CK1δ (Homo sapiens, UniProt P48730)", "sequence (P48730 whole entry)": "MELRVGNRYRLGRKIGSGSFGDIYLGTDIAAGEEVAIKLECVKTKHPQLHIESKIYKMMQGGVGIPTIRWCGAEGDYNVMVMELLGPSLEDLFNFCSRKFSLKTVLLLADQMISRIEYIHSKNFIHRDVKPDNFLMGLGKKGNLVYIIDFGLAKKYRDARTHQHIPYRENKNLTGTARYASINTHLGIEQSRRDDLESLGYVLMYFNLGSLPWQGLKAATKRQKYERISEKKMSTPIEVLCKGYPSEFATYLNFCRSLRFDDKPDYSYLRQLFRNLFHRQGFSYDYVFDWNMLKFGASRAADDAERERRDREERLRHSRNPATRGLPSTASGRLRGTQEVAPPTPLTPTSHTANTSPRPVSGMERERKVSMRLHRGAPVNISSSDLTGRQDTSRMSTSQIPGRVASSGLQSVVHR", "assay": "in vitro phosphorylation of a standard protein or peptide substrate by purified kinase", "format": "biochemical", "conditions": "100 mM ATP, increasing concentrations of compound, percent of maximal enzyme activity (FIG. 2)"}, "[1]": {"test_system": "LPS-induced serum cytokine levels", "assay": "LPS-induced serum cytokine levels in acute inflammation mouse model (ELISA)", "format": "in vivo", "conditions": "25 mg/kg oral gavage, LPS 10 mg/kg i.p. 30 minutes later, serum after 6 hr, ELISA (FIG. 3)"}, "[2]": {"assay": "plasma levels after oral administration (oral bioavailability)", "format": "in vivo", "conditions": "plasma levels after oral administration (FIG. 4A)"}, "[3]": {"assay": "liver histological toxicity screen after chronic administration", "format": "in vivo", "conditions": "after chronic administration (FIG. 4B)"}, "[4]": {"assay": "metabolic stability in human liver microsome screen", "format": "in vitro ADME", "conditions": "human liver microsome screen (FIG. 4C)"}}, "data": [{"molecule": "c1ccc(-c2nnc(N3CCN(c4ncccn4)CC3)cc2-c2ccncc2)cc1", "note": "[MW01-2-069aSRM]", "values": [{"measurement": "inhibition of CK1δ enzyme activity", "setting": "CK1δ", "value": "inhibit in vitro p38 MAPK and CK1δ enzyme activity in a concentration dependent manner"}, {"measurement": "inhibition of LPS-induced serum cytokine levels", "setting": "[1]", "value": "inhibit LPS-induced serum cytokine levels in vivo"}, {"measurement": "oral bioavailability", "setting": "[2]", "value": "oral bioavailability, safety and metabolic stability is demonstrated"}, {"measurement": "liver histological toxicity", "setting": "[3]", "value": "no liver histological toxicity"}, {"measurement": "metabolic stability", "setting": "[4]", "value": "metabolic stability is demonstrated"}]}]}
